In brackets after ≈: the same amount, converted by molar mass.

One assay deals with Mycobacterium tuberculosis H37Rv strains. Kind of assay: In vitro assay for antimicrobial susceptibility (microplate Alamar blue MIC). In kind it is cell-based. The following applies: Mycobacterium tuberculosis, H37RV, 7H9, Alamar blue, inhibition ≧90%; read-out: MIC (μg/mL) against H37Rv.
As for `COC1CCC(/N=c2\cc3n(-c4ccc(Cl)cc4)c4ccccc4nc-3cc2Nc2cnccn2)CC1` (stereo not shown) [TBI-1091, 5-(4-Chlorophenyl)-3-(4-methoxycyclohexyl)imino-2-(pyrazin-2-yl)amino-3,5-dihydrophenazine], the MIC was determined as 0.018 µg/mL (≈ 0.0352 µM). For `CC(C)/N=c1\cc2n(-c3ccc(F)c(F)c3)c3ccccc3nc-2cc1Nc1cnccn1` [TBI-1446, 5-(3,4-Difluorophenyl)-3-(1-methylethyl)imino-2-(pyrazin-2-yl)amino-3,5-dihydrophenazine], the MIC turned out to be 0.03 µg/mL (≈ 0.0678 µM). On the same count and under the same terms, to `CC(C)/N=c1\cc2n(-c3ccc(F)cc3)c3ccccc3nc-2cc1Nc1ncccn1` [TBI-1053, 5-(4-Fluorophenyl)-3-(1-methylethyl)imino-2-(pyrimidin-2-yl)amino-3,5-dihydrophenazine] belongs 0.015 µg/mL (≈ 0.0353 µM). As for `CC(C)/N=c1\cc2n(-c3ccc(F)cc3)c3ccccc3nc-2cc1Nc1ccccn1` [TBI-1054, 5-(4-Fluorophenyl)-3-(1-methylethyl)imino-2-(2-pyridyl)amino-3,5-dihydrophenazine], the MIC was 0.446 µg/mL (≈ 1.05 µM).

Still in this assay, the particulars now being: Mycobacterium tuberculosis, H37RV, in vitro, Mycobacterium tuberculosis H37Rv strains; read-out: MIC (μg/mL) against H37Rv.
Consider `Cc1ccc(-n2c3c/c(=N\C4CCC4)c(Nc4cccnc4)cc-3nc3ccccc32)cc1` [TBI-345, 5-(4-Methylphenyl)-3-cyclobutylimino-2-(3-pyridyl)amino-3,5-dihydrophenazine], for which the MIC is 0.221 µg/mL (≈ 0.512 µM).

`COc1ccc2nc3cc(Nc4cccnc4OC)/c(=N/C4CCC4)cc-3n(-c3ccc(Cl)cc3)c2c1` [TBI-895, 7-Methoxy-5-(4-chlorophenyl)-3-cyclobutylimino-2-(2-methoxy-3-pyridyl)amino-3,5-dihydrophenazine]: the MIC worked out at 0.125 µg/mL (≈ 0.244 µM). In the case of `COC1CCC(/N=c2\cc3n(-c4ccc(Cl)c(Cl)c4)c4ccc(F)cc4nc-3cc2Nc2ccc(C)nc2)CC1` (stereo not shown) [TBI-878, 8-Fluoro-5-(3,4-dichlorophenyl)-3-(4-methoxycyclohexyl)imino-2-(6-methyl-3-pyridinyl)amino-3,5-dihydrophenazine], the MIC was found to be 0.029 µg/mL (≈ 0.0503 µM).

As to `COc1ccc(Nc2cc3nc4ccccc4n(-c4ccccc4)c-3c/c2=N\C2CC2)cn1` [TBI-511, 5-Phenyl-3-cyclopropylimino-2-(6-methoxy-3-pyridyl)amino-3,5-dihydrophenazine], the MIC was 0.177 µg/mL (≈ 0.408 µM).

As to `COc1ncccc1Nc1cc2nc3ccccc3n(-c3ccc(F)cc3)c-2c/c1=N\C1CCCCC1` [TBI-1009, 5-(4-Fluorophenyl)-3-cyclohexylimino-2-(2-methoxy-3-pyridyl)amino-3,5-dihydrophenazine], the MIC stood at 0.03 µg/mL (≈ 0.0608 µM).

Consider `CC(C)/N=c1\cc2n(-c3ccc(Cl)cc3Cl)c3ccccc3nc-2cc1Nc1cccnc1` [TBI-363, 5-(2,4-Dichlorophenyl)-3-(1-methylethyl)imino-2-(3-pyridyl)amino-3,5-dihydrophenazine], for which the MIC came to 0.03 µg/mL (≈ 0.0632 µM). The same measure, in the same setting: the value for `COc1ncccc1Nc1cc2nc3ccccc3n(-c3ccccc3OC(F)(F)F)c-2c/c1=N\C(C)C` [TBI-1046, 5-(2-Trifluoromethoxyphenyl)-3-(1-methylethyl)imino-2-(2-methoxy-3-pyridyl)amino-3,5-dihydrophenazine] was 0.44 µg/mL (≈ 0.847 µM); that for `COc1ncccc1Nc1cc2nc3ccccc3n(-c3cccc(F)c3)c-2c/c1=N\C(C)C` [TBI-523] was 0.06 µg/mL (≈ 0.132 µM); that for `Cc1ccc(Nc2cc3nc4ccccc4n(-c4cccc(Cl)c4)c-3c/c2=N\C2CCCCC2)cn1` [TBI-80B, 5-(3-Chlorophenyl)-3-cyclohexylimino-2-(6-methyl-3-pyridyl)amino-3,5-dihydrophenazine] was 0.125 µg/mL (≈ 0.253 µM). On the same count and under the same terms, the value for `COc1ncccc1Nc1cc2nc3ccccc3n(-c3ccc(F)cc3)c-2c/c1=N\C1CCN(C)CC1` [TBI-1005, 5-(4-Fluorophenyl)-3-(N-methyl-4-piperidyl)imino-2-(2-methoxy-3-pyridyl)amino-3,5-dihydrophenazine] was 0.213 µg/mL (≈ 0.419 µM); that for `Cc1ccc(Nc2cc3nc4ccccc4n(-c4ccccc4)c-3c/c2=N\C(C)C)cn1` [TBI-067, 5-Phenyl-3-(1-methylethyl)imino-2-(6-methyl-3-pyridyl)amino-3,5-dihydrophenazine] was 0.048 µg/mL (≈ 0.114 µM). On the same count and under the same terms, the value for `Cc1ncccc1Nc1cc2nc3ccccc3n(-c3ccc(C(F)(F)F)cc3)c-2c/c1=N\C1CCOCC1` [TBI-707, 5-(4-Trifluoromethylphenyl)-3-(4-tetrahydropyranyl)imino-2-(2-methyl-3-pyridyl)amino-3,5-dihydrophenazine] was 0.011 µg/mL (≈ 0.0208 µM); that for `Cc1ccc(Nc2cc3nc4ccccc4n(-c4ccccc4)c-3c/c2=N\C2CCC2)cn1` [TBI-506, 5-Phenyl-3-cyclobutylimino-2-(6-methyl-3-pyridyl)amino-3,5-dihydrophenazine] was 0.05 µg/mL (≈ 0.116 µM); that for `COc1ccc(Nc2cc3nc4ccccc4n(-c4ccc(C(F)(F)F)cc4)c-3c/c2=N\C2CCC(OC)CC2)cn1` (stereo not shown) [TBI-735, 5-(4-Trifluoromethylphenyl)-3-(4-methoxycyclohexyl)imino-2-(6-methoxy-3-pyridyl)amino-3,5-dihydrophenazine] was 0.186 µg/mL (≈ 0.324 µM). Consider `CC(=O)Nc1ccc(Nc2cc3nc4ccccc4n(-c4ccc(C(F)(F)F)cc4)c-3c/c2=N\C2CCC(O)CC2)cn1` (stereo not shown) [TBI-714, 5-(4-Trifluoromethylphenyl)-3-(4-hydroxycyclohexyl)imino-2-(6-acetamino-3-pyridyl)amino-3,5-dihydrophenazine], for which the MIC was 0.686 µg/mL (≈ 1.17 µM). Same read-out and setting: the value for `COc1ccc(Nc2cc3nc4ccccc4n(-c4ccc(F)cc4)c-3c/c2=N\C2CCC2)cn1` [TBI-934, 5-(4-Fluorophenyl)-3-cyclobutylimino-2-(6-methoxy-3-pyridyl)amino-3,5-dihydrophenazine] was 0.3 µg/mL (≈ 0.644 µM). Same read-out and setting: the value for `COc1ccc(Nc2cc3nc4ccccc4n(-c4ccc(C)cc4)c-3c/c2=N\C2CCOCC2)cn1` [TBI-360, 5-(4-Methylphenyl)-3-(4-tetrahydropyranyl)imino-2-(6-methoxy-3-pyridyl)amino-3,5-dihydrophenazine] was 0.2 µg/mL (≈ 0.407 µM); that for `COc1ncccc1Nc1cc2nc3ccc(F)cc3n(-c3ccc(Cl)cc3)c-2c/c1=N\C1CCCCC1` [TBI-927, 7-Fluoro-5-(4-chlorophenyl)-3-cyclohexylimino-2-(2-methoxy-3-pyridyl)amino-3,5-dihydrophenazine] was 0.04 µg/mL (≈ 0.0758 µM); that for `CN1CCC(/N=c2\cc3n(-c4ccc(OC(F)(F)F)cc4)c4ccccc4nc-3cc2Nc2cccnc2)CC1` [TBI-159, 5-(4-Trifluoromethoxyphenyl)-3-(N-methyl-4-piperidyl)imino-2-(3-pyridyl)amino-3,5-dihydrophenazine] was 0.25 µg/mL (≈ 0.459 µM). With `COc1ncccc1Nc1cc2nc3ccccc3n(-c3cccc(Cl)c3)c-2c/c1=N\C1CC1` [TBI-823, 5-(3-Chlorophenyl)-3-cyclopropylimino-2-(2-methoxy-3-pyridyl)amino-3,5-dihydrophenazine], the MIC was determined as 0.03 µg/mL (≈ 0.0641 µM). Same read-out and setting: the value for `COc1ncccc1Nc1cc2nc3ccccc3n(-c3ccccc3)c-2c/c1=N\C1CCOCC1` [TBI-066, 5-Phenyl-3-(4-tetrahydropyranyl)imino-2-(2-methoxy-3-pyridyl)amino-3,5-dihydrophenazine] was 0.026 µg/mL (≈ 0.0544 µM); that for `Cc1ccc(-n2c3c/c(=N\C4CC4)c(Nc4cccnc4C)cc-3nc3ccccc32)cc1` [TBI-341, 5-(4-Methylphenyl)-3-cyclopropylimino-2-(2-methyl-3-pyridyl)amino-3,5-dihydrophenazine] was 0.014 µg/mL (≈ 0.0324 µM).

In the case of `Cc1ccc(Nc2cc3nc4cc(F)ccc4n(-c4ccc(Cl)cc4)c-3c/c2=N\C(C)C)cn1` [TBI-943, 8-Fluoro-5-(4-chlorophenyl)-3-(1-methylethyl)imino-2-(6-methyl-3-pyridyl)amino-3,5-dihydrophenazine], the MIC is 0.06 µg/mL (≈ 0.127 µM). As to `COc1ncccc1Nc1cc2nc3ccccc3n(-c3ccc(C)cc3)c-2c/c1=N\C1CCC(O)CC1` (stereo not shown) [TBI-332, 5-(4-Methylphenyl)-3-(4-hydroxycyclohexyl)imino-2-(2-methoxy-3-pyridyl)amino-3,5-dihydrophenazine], the MIC amounted to 0.294 µg/mL (≈ 0.581 µM).

Turning to `CC(=O)Nc1ccc(Nc2cc3nc4ccccc4n(-c4ccc(F)cc4)c-3c/c2=N\C(C)C)cn1` [TBI-910, 5-(4-Fluorophenyl)-3-(1-methylethyl)imino-2-(6-acetamino-3-pyridyl)amino-3,5-dihydrophenazine], the MIC is 0.147 µg/mL (≈ 0.306 µM).

With `Cc1ccc(-n2c3c/c(=N\C4CC4)c(Nc4cccnc4)cc-3nc3ccccc32)cc1` [TBI-349, 5-(4-Methylphenyl)-3-cyclopropylimino-2-(3-pyridyl)amino-3,5-dihydrophenazine], the MIC stood at 0.0075 µg/mL (≈ 0.018 µM). Same read-out and setting: the value for `COc1ccc(Nc2cc3nc4ccccc4n(-c4ccccc4)c-3c/c2=N\C2CCC(OC)CC2)cn1` (stereo not shown) [TBI-514, 5-Phenyl-3-(4-methoxycyclohexyl)imino-2-(6-methoxy-3-pyridyl)amino-3,5-dihydrophenazine] was 0.243 µg/mL (≈ 0.481 µM); that for `Brc1ccc(-n2c3c/c(=N\C4CCCCC4)c(Nc4cccnc4)cc-3nc3ccccc32)cc1` [TBI-089, 5-(4-Bromophenyl)-3-cyclohexylimino-2-(3-pyridyl)amino-3,5-dihydrophenazine] was 0.021 µg/mL (≈ 0.04 µM). Still for that read-out and setting: the value for `COc1ccc(Nc2cc3nc4ccccc4n(-c4ccc(C(F)(F)F)cc4)c-3c/c2=N\C2CCCCC2)cn1` [TBI-732] was 0.113 µg/mL (≈ 0.208 µM); that for `COCC(COC)/N=c1\cc2n(-c3cccc(Cl)c3)c3ccccc3nc-2cc1Nc1cccnc1OC` [TBI-825, 5-(3-Chlorophenyl)-3-(1,3-dimethoxyisopropyl)imino-2-(2-methoxy-3-pyridyl)amino-3,5-dihydrophenazine] was 0.125 µg/mL (≈ 0.236 µM). Same read-out and setting: to `Cc1ccc(Nc2cc3nc4ccc(F)cc4n(-c4ccc(Cl)c(Cl)c4)c-3c/c2=N\C2CCOCC2)cn1` [TBI-949, 7-Fluoro-5-(3,4-dichlorophenyl)-3-(4-tetrahydropyranyl)imino-2-(6-methyl-3-pyridyl)amino-3,5-dihydrophenazine] belongs 0.816 µg/mL (≈ 1.49 µM); to `FC(F)(F)Oc1cccc(-n2c3c/c(=N\C4CC4)c(Nc4cccnc4)cc-3nc3ccccc32)c1` [TBI-1021, 5-(3-Trifluoromethoxyphenyl)-3-cyclopropylimino-2-(3-pyridyl)amino-3,5-dihydrophenazine], 0.054 µg/mL (≈ 0.111 µM); to `Cc1ccc(Nc2cc3nc4ccccc4n(-c4ccc(F)cc4)c-3c/c2=N\C2CCC2)cn1` [TBI-1017], 0.056 µg/mL (≈ 0.125 µM).

The values above are taken from patent publication US8716292B2, “Riminophenazines with 2-(heteroaryl)amino substituents and their anti-microbial activity” (priority 2010, dated 2014).
